ChEMBL document CHEMBL1157013, “Novel phospholipid analogues of pan-PPAR activator tetradecylthioacetic acid are more PPAR alpha selective” (Bioorg Med Chem Lett, 2010)
Activity calls are given as the source filed them. No cut-off for these calls is given here.

Key:
Format in all cases: cell-based
[1] = biological target: T1, Peroxisome proliferator-activated receptor alpha (Homo sapiens) (UniProt Q07869); assay: Activation of PPARalpha expressed in human MCF7 cells at 10 uM by luciferase reporter gene assay
T1 sequence (whole entry): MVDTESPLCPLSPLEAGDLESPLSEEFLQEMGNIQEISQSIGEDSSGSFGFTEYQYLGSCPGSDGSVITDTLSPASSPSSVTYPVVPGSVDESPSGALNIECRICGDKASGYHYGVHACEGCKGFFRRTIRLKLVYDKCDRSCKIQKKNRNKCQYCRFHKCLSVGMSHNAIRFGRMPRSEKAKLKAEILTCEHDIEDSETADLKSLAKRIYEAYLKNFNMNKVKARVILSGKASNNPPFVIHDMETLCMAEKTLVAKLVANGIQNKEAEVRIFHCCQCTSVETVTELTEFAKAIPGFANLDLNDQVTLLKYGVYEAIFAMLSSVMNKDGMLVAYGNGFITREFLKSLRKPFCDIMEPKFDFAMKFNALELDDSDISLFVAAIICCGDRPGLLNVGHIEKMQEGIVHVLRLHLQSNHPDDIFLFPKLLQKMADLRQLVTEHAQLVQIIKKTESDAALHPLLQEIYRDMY

[2] = biological target: T1, Peroxisome proliferator-activated receptor alpha (Homo sapiens); assay: Activation of PPARalpha expressed in human MCF7 cells at 30 uM by luciferase reporter gene assay
[3] = biological target: T2, Peroxisome proliferator-activated receptor delta (Homo sapiens) (UniProt Q03181); assay: Activation of PPARdelta expressed in human MCF7 cells at 10 uM by luciferase reporter gene assay
T2 sequence (whole entry): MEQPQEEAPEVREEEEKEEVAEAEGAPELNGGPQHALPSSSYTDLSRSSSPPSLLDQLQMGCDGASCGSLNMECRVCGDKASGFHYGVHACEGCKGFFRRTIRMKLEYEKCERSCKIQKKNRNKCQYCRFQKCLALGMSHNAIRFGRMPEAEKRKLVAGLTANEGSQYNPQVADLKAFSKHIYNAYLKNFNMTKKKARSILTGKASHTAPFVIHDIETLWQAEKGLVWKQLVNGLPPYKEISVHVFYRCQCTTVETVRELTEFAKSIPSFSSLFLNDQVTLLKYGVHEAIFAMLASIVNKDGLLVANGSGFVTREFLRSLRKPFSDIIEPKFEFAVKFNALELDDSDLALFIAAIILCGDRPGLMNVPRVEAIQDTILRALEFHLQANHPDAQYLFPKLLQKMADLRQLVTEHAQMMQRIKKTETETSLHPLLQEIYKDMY

[4] = biological target: T2, Peroxisome proliferator-activated receptor delta (Homo sapiens); assay: Activation of PPARdelta expressed in human MCF7 cells at 30 uM by luciferase reporter gene assay
[5] = biological target: T3, Peroxisome proliferator-activated receptor gamma (Homo sapiens) (UniProt P37231); assay: Activation of PPARgamma expressed in human MCF7 cells at 10 uM by luciferase reporter gene assay
T3 sequence (whole entry): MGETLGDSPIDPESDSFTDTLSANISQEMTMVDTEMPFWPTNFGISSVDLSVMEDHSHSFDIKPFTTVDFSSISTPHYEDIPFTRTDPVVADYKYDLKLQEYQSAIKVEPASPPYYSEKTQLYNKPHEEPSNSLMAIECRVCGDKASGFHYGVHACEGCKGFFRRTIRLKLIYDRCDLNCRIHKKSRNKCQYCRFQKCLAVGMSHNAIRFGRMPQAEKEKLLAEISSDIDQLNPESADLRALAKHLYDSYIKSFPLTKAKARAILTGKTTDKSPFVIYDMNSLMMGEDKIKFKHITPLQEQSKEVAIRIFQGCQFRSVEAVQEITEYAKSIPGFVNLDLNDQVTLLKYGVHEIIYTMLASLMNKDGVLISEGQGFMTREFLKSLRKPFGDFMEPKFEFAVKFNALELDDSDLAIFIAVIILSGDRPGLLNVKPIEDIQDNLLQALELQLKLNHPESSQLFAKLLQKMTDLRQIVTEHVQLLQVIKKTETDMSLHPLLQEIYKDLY

[6] = biological target: T3, Peroxisome proliferator-activated receptor gamma (Homo sapiens); assay: Activation of PPARgamma expressed in human MCF7 cells at 30 uM by luciferase reporter gene assay

Activity [1] | Activity [2] | Activity [3] | Activity [4] | Activity [5] | Activity [6] | Structure (SMILES)
Active | Active | Active | Active | Active | Active | CCCCCCCCCCCCCCSCC(=O)OC[C@@H](O)COP(=O)([O-])OCC[N+](C)(C)C
Active | Active | Active | Active | Active | Active | CCCCCCCCCCCCCCSCC(=O)OC[C@H](COP(=O)(O)OCC(O)CO)OC(=O)CSCCCCCCCCCCCCCC (stereo not given in full)
 | Active |  | Active |  | Active | CCCCCCCCCCCCCCSCC(=O)O
